Counter-ions that a name gives are not always drawn.

One may read the IC50 as the concentration needed to halve the response being measured.

The experiment deals with rat TRPV1 (Rattus norvegicus (Rat), UniProt O35433). The settings on record: read-out: Rat IC50.
rat TRPV1, sequence (O35433 whole entry): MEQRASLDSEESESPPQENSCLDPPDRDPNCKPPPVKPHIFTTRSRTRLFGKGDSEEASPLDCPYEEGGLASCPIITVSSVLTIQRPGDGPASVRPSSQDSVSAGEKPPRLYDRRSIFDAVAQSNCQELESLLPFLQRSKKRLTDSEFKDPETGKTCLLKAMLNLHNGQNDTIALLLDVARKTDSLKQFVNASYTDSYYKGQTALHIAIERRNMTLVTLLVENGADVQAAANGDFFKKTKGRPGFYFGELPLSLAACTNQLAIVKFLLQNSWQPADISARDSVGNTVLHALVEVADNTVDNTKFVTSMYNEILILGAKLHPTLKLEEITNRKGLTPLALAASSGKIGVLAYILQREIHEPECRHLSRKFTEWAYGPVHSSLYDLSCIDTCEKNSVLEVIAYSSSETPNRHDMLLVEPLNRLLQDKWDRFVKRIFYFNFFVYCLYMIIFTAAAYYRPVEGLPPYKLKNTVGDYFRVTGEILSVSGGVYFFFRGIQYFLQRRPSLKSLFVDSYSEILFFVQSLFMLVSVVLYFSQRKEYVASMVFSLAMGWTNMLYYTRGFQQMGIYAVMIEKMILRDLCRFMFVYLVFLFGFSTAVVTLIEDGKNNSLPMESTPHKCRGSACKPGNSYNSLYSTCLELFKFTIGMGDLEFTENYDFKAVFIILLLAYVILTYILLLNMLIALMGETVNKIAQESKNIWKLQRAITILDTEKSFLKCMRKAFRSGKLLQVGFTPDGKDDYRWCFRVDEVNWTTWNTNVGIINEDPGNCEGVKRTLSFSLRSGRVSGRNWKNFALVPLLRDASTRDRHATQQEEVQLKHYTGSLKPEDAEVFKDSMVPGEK
In the case of `FC1(F)CCN(c2nc3c(c(Nc4ccc(C(F)(F)F)cc4)n2)CCN(c2ncccc2C(F)(F)F)CC3)CC1` [Example 242, 2-(4,4-Difluoropiperidin-1-yl)-N-[4-(trifluoromethyl)phenyl]-7-[3-(trifluoromethyl)pyridin-2-yl]-6,7,8,9-tetrahydro-5H-pyrimido[4,5-d]azepin-4-amine], the IC50 stood at 90 nM.

`FC1(F)CCN(c2nc3c(c(Nc4ccc(C(F)(F)F)cc4)n2)CCN(c2ncccc2C(F)(F)F)CC3)C1` [Example 243, 2-(3,3-Difluoropyrrolidin-1-yl)-N-[4-(trifluoromethyl)phenyl]-7-[3-(trifluoromethyl)pyridin-2-yl]-6,7,8,9-tetrahydro-5H-pyrimido[4,5-d]azepin-4-amine trifluoroacetic acid salt]: the half-maximal inhibitory concentration (IC50) came to 450 nM. Then `FC(F)(F)c1ccc(Nc2nc(N3CCCOCC3)nc3c2CCN(c2ncccc2C(F)(F)F)CC3)cc1Cl` [Example 245, N-[3-Chloro-4-(trifluoromethyl)phenyl]-2-(1,4-oxazepan-4-yl)-7-[3-(trifluoromethyl)pyridin-2-yl]-6,7,8,9-tetrahydro-5H-pyrimido[4,5-d]azepin-4-amine trifluoroacetic acid salt], with 20 nM; and `CC(C)(C)c1ccc(Nc2nc(N3CCCC3)nc3c2CCN(c2ncccc2C(F)(F)F)CC3)cc1` [Example 248, N-[4-(1,1-Dimethylethyl)phenyl]-2-pyrrolidin-1-yl-7-[3-(trifluoromethyl)pyridin-2-yl]-6,7,8,9-tetrahydro-5H-pyrimido[4,5-d]azepin-4-amine], with 530 nM; and `CC(C)(C)c1ccc(Nc2nc(N3CCC3)nc3c2CCN(c2ncccc2C(F)(F)F)CC3)cc1` [Example 249, 2-Azetidin-1-yl-N-[4-(1,1-dimethylethyl)phenyl]-7-[3-(trifluoromethyl)pyridin-2-yl]-6,7,8,9-tetrahydro-5H-pyrimido[4,5-d]azepin-4-amine], with 830 nM. Then `FC(F)(F)c1ccc(Nc2nc(N3CCCCC3)nc3c2CCN(c2ncccc2C(F)(F)F)CC3)nc1` [Example 250, 2-Piperidin-1-yl-7-[3-(trifluoromethyl)pyridin-2-yl]-N-[5-(trifluoromethyl)pyridin-2-yl]-6,7,8,9-tetrahydro-5H-pyrimido[4,5-d]azepin-4-amine], with 90 nM. Consider `FC(F)(F)c1cccnc1N1CCc2nc(N3CCCCC3)nc(NCc3ccc(Cl)c(Cl)c3)c2CC1` [Example 251, N-[(3,4-Dichlorophenyl)methyl]-2-piperidin-1-yl-7-[3-(trifluoromethyl)pyridin-2-yl]-6,7,8,9-tetrahydro-5H-pyrimido[4,5-d]azepin-4-amine], for which the half-inhibitory concentration (IC50) stood at 1980 nM. For `CN(C)CCN(C)c1nc2c(c(Nc3ccc(C(C)(C)C)cc3)n1)CCN(c1ncccc1C(F)(F)F)CC2` [Example 254, N^2-[2-(Dimethylamino)ethyl]-N^4-[4-(1,1-dimethylethyl)phenyl]-N^2-methyl-7-[3-(trifluoromethyl)pyridin-2-yl]-6,7,8,9-tetrahydro-5H-pyrimido[4,5-d]azepine-2,4-diamine] the value was 100 nM. Turning to `FC(F)(F)c1cccnc1N1CCc2nc(N3CCCCCC3)nc(NCc3ccc(Cl)c(Cl)c3)c2CC1` [Example 255, 2-Azepan-1-yl-N-[(3,4-dichlorophenyl)methyl]-7-[3-(trifluoromethyl)pyridin-2-yl]-6,7,8,9-tetrahydro-5H-pyrimido[4,5-d]azepin-4-amine], the IC50 came out at 700 nM. Then `COCCN(C)c1nc2c(c(Nc3ccc(C(C)(C)C)cc3)n1)CCN(c1ncccc1C(F)(F)F)CC2` [Example 257, N^4-[4-(1,1-Dimethylethyl)phenyl]-N^2-methyl-N^2-[2-(methyloxy)ethyl]-7-[3-(trifluoromethyl)pyridin-2-yl]-6,7,8,9-tetrahydro-5H-pyrimido[4,5-d]azepine-2,4-diamine], with 20 nM; and `OCC1CCCCN1c1nc2c(c(Nc3ccc(C(F)(F)F)cc3)n1)CCN(c1ncccc1C(F)(F)F)CC2` (stereo not shown) [Example 259, [1-(4-{[4-(Trifluoromethyl)phenyl]amino}-7-[3-(trifluoromethyl)pyridin-2-yl]-6,7,8,9-tetrahydro-5H-pyrimido[4,5-d]azepin-2-yl)piperidin-2-yl]methanol], with 90 nM. For `OC[C@@H]1CCCN1c1nc2c(c(Nc3ccc(C(F)(F)F)cc3)n1)CCN(c1ncccc1C(F)(F)F)CC2` [Example 260, [(2S)-1-(4-{[4-(Trifluoromethyl)phenyl]amino}-7-[3-(trifluoromethyl)pyridin-2-yl]-6,7,8,9-tetrahydro-5H-pyrimido[4,5-d]azepin-2-yl)pyrrolidin-2-yl]methanol hydrochloride salt] the value was 50 nM; for `OC[C@H]1CCCN1c1nc2c(c(Nc3ccc(C(F)(F)F)cc3)n1)CCN(c1ncccc1C(F)(F)F)CC2` [Example 261, [(2R)-1-(4-{[4-(Trifluoromethyl)phenyl]amino}-7-[3-(trifluoromethyl)pyridin-2-yl]-6,7,8,9-tetrahydro-5H-pyrimido[4,5-d]azepin-2-yl)pyrrolidin-2-yl]methanol hydrochloride salt], 340 nM. Then `OC[C@@H]1CCCN1c1nc2c(c(Nc3ccc(C(F)(F)F)cn3)n1)CCN(c1ncccc1C(F)(F)F)CC2` [Example 262, [(2S)-1-(7-[3-(Trifluoromethyl)pyridin-2-yl]-4-{[5-(trifluoromethyl)pyridin-2-yl]amino}-6,7,8,9-tetrahydro-5H-pyrimido[4,5-d]azepin-2-yl)pyrrolidin-2-yl]methanol hydrochloride salt], with 1640 nM; and `FC(F)(F)c1ccc(Nc2nc(N[C@@H]3CCOC3)nc3c2CCN(c2ncccc2C(F)(F)F)CC3)nc1` [Example 263, N^2-[(3R)-Tetrahydrofuran-3-yl]-7-[3-(trifluoromethyl)pyridin-2-yl]-N^4-[5-(trifluoromethyl)pyridin-2-yl]-6,7,8,9-tetrahydro-5H-pyrimido[4,5-d]azepine-2,4-diamine], with 1460 nM; and `CC(C)(C)c1ccc(Nc2nc(N[C@@H]3CCOC3)nc3c2CCN(c2ncccc2C(F)(F)F)CC3)cc1` [Example 264, N^4-[4-(1,1-Dimethylethyl)phenyl]-N^2-[(3R)-tetrahydrofuran-3-yl]-7-[3-(trifluoromethyl)pyridin-2-yl]-6,7,8,9-tetrahydro-5H-pyrimido[4,5-d]azepine-2,4-diamine], with 1300 nM.

Turning to `CC(C)N(C)c1nc2c(c(Nc3ccc(C(F)(F)F)nc3)n1)CCN(c1ncccc1C(F)(F)F)CC2` [Example 266, N^2-Methyl-N^2-(1-methylethyl)-7-[3-(trifluoromethyl)pyridin-2-yl]-N^4-[6-(trifluoromethyl)pyridin-3-yl]-6,7,8,9-tetrahydro-5H-pyrimido[4,5-d]azepine-2,4-diamine], the half-inhibitory concentration (IC50) was 450 nM.

As for `Cc1cc(C(F)(F)F)ccc1Nc1nc(N(C)C2CCCCC2)nc2c1CCN(c1ncccc1C(F)(F)F)CC2` [Example 267, N^2-Cyclohexyl-N^2-methyl-N^4-[2-methyl-4-(trifluoromethyl)phenyl]-7-[3-(trifluoromethyl)pyridin-2-yl]-6,7,8,9-tetrahydro-5H-pyrimido[4,5-d]azepine-2,4-diamine], the IC50 turned out to be 1870 nM. Then `FC(F)(F)c1ccc(Nc2nc(N3C4CCC3CC4)nc3c2CCN(c2ncccc2C(F)(F)F)CC3)cc1` [Example 268, 2-(7-Azabicyclo[2.2.1]hept-7-yl)-N-[4-(trifluoromethyl)phenyl]-7-[3-(trifluoromethyl)pyridin-2-yl]-6,7,8,9-tetrahydro-5H-pyrimido[4,5-d]azepin-4-amine], with 150 nM. Consider `Cc1cc(C(F)(F)F)ccc1Nc1nc(N2CCCC2C(C)C)nc2c1CCN(c1ncccc1C(F)(F)F)CC2` (stereo not shown) [Example 269, 2-[2-(1-Methylethyl)pyrrolidin-1-yl]-N-[2-methyl-4-(trifluoromethyl)phenyl]-7-[3-(trifluoromethyl)pyridin-2-yl]-6,7,8,9-tetrahydro-5H-pyrimido[4,5-d]azepin-4-amine], for which the IC50 amounted to 180 nM. Then `FC(F)(F)c1ccc(Nc2nc(NCC3CCCCC3)nc3c2CCN(c2ncccc2C(F)(F)F)CC3)cn1` [Example 270, N^2-(Cyclohexylmethyl)-7-[3-(trifluoromethyl)pyridin-2-yl]-N^4-[6-(trifluoromethyl)pyridin-3-yl]-6,7,8,9-tetrahydro-5H-pyrimido[4,5-d]azepine-2,4-diamine], with 830 nM. For `OCC1CN(c2nc3c(c(Nc4ccc(C(F)(F)F)cc4)n2)CCN(c2ncccc2C(F)(F)F)CC3)CCO1` (stereo not shown) [Example 271, [4-(4-{[4-(Trifluoromethyl)phenyl]amino}-7-[3-(trifluoromethyl)pyridin-2-yl]-6,7,8,9-tetrahydro-5H-pyrimido[4,5-d]azepin-2-yl)morpholin-2-yl]methanol] the value was 840 nM; for `CC(C)N(C)c1nc2c(c(Nc3ccc(C(F)(F)F)cc3)n1)CCN(c1ncccc1C(F)(F)F)CC2` [Example 272, N^2-Methyl-N^2-(1-methylethyl)-N^4-[4-(trifluoromethyl)phenyl]-7-[3-(trifluoromethyl)pyridin-2-yl]-6,7,8,9-tetrahydro-5H-pyrimido[4,5-d]azepine-2,4-diamine], 200 nM. Then `Cc1cc(C(F)(F)F)ccc1Nc1nc(N2CCOC(CO)C2)nc2c1CCN(c1ncccc1C(F)(F)F)CC2` (stereo not shown) [Example 273, [4-(4-{[2-Methyl-4-(trifluoromethyl)phenyl]amino}-7-[3-(trifluoromethyl)pyridin-2-yl]-6,7,8,9-tetrahydro-5H-pyrimido[4,5-d]azepin-2-yl)morpholin-2-yl]methanol], with 680 nM; and `CN(c1nc2c(c(Nc3ccc(C(F)(F)F)nc3)n1)CCN(c1ncccc1C(F)(F)F)CC2)C1CCCCC1` [Example 275, N^2-Cyclohexyl-N^2-methyl-7-[3-(trifluoromethyl)pyridin-2-yl]-N^4-[6-(trifluoromethyl)pyridin-3-yl]-6,7,8,9-tetrahydro-5H-pyrimido[4,5-d]azepine-2,4-diamine], with 190 nM.

Values taken from patent publication US9422293B2 (priority 2006, dated 2016).
